In patent US12486241B2, “Cystine diamide analogs for cystinuria” (Rutgers, The State University of New Jersey, priority 2019, dated 2025):
Counter-ions that a name gives are not always drawn.

Columns and labels:
rats = conditions: cited from earlier work
[1] = in water; cited from earlier work
cell culture = cell culture experiments; cited from earlier work
[2] = L-cystine crystallization inhibition assay (metastable supersaturated L-cystine solution; L-cystine concentration by fluorescence or cyanide-nitroprusside colorimetric assay); conditions: for Ratio (improvement in potency over the control): footnote names L-cystine dimethylester (CDME) as control, LH708 = 1.00; for EC50: test compound in L-cystine supersaturated solution (~3 mM), 25° C. for 72 h, read-out: EC50 (Aqueous Solubility of L-Cystine)
Experimental: Example 21 Preparation of the Metastable Supersaturated Solution of L-Cystine and the Cystallizaiton Inhibition Assay
For the preparation of L-cystine supersaturated solution 70 mg of L-cystine was dissolved in 100 mL of Millipore water (˜3 mM) under reflux at 120° C. for 30 min until the L-cystine was completely dissolved. The supersaturated solution was then allowed to cool slowly with stirring until the oil bath temperature reached 40° C. take about 70 min depending on the lab atmosphere. To determine the L-cystine concentration all test compounds were dissolved in water to form 10 mM stock solution. Five uL of each solution was added to 495 uL L-cystine supersaturated solution. The mixtures were allowed to stand at 25° C. for 72 h. At the end of incubation, the mixtures were centrifuged at 13,000 rpm for 5 min and the supernatants were diluted 10-fold for concentration measurement. To construct the standard curves L-Cystine (2.1 mg) was dissolved in 0.1 M Na2CO3 solution (9 mL) to form a 1 mM solution as a stock solution. Then, 50 uL L-cystine stock solution was diluted to 0.6 mM with 0.1 M Na2CO3 ([…]) solution and to 0.4, 0.2, 0.1, 0.05 mM solution using Millipore water 75, 200, 450 and 950 uL, respectively.
Fluorescence Assay for the Determination of L-Cystine Concentration
10 μL of each L-cystine solutions or test compound diluted mixtures, 100 μL of DTT solution (12.5 mM) in 0.1 M dibasic sodium phosphate solution (1:9), were mixed at r.t. for 10 min, before the addition of 10 μL of iodoacetic acid (100 mM) and continued incubation at r.t. for an additional 15 min. This was then followed by the addition of 20 μL of OPA (100 mM in methanol)/NBC (100 mM in methanol) (1:1). The derivatization was allowed to proceed for 3 min before 3×40 μL of the mixture were placed in a 384-well plate and read at Ex 355 nm/Em 460 nm. The standard curve was repeated for each set of experiments and used to calculate the concentration of L-cystine in each sample.
Cyanide-Nitroprusside Colorimetric Assay for the Determination of L-Cystine Concentration
3×40 μL of each L-cystine solutions or test compound diluted mixtures were placed in a 96-well plate (black, clear bottom). 80 μL of aqueous solution of potassium cyanide (30% w/v) in PBS (pH=7.4) (1:7) was added to each well then the plate was left to shake at 550 rpm for 25 min. 10 μL of aqueous solution of sodium nitroprusside (20% w/v) was added to each well using automated dispenser then the plate was centrifuged immediately at 1500 rpm for 20 sec. Then the UV absorbance was measured at 530 nm using Victor 3 V plate reader. The standard curve was repeated for each plate and used to calculate the concentration of L-cystine in each sample.

Structure (SMILES)	Dosage demonstrating adverse effects (rats)	Concentration at which crystallization of L-cystine is almost completely inhibited [1]	Concentration causing loss of cell viability (cell culture)	Ratio (improvement in potency over the control) [2]	EC50 [2] [µM]
COC(=O)[C@@H](N)CSSC[C@H](N)C(=O)OC [CDME, L-cystine dimethylester]	approximately 500 mg/kg per day	above 2 mg/L	approximately 1 mM		
CN1CCN(C(=O)[C@@H](N)CSSC[C@H](N)C(=O)N2CCN(C)CC2)CC1 [LH708, reference compound]				1.00	0.0428 ± 0.0007
N[C@@H](CSSC[C@H](N)C(=O)N1CCNCC1)C(=O)N1CCNCC1 [LH1726, L-Cystine bispiperazide tetrahydrochloride]				0.81	0.0526 ± 0.0008
CC(C)(C)N1CCN(C(=O)[C@@H](N)CSSC[C@H](N)C(=O)N2CCN(C(C)(C)C)CC2)CC1 [LH1729, L-Cystine bis(N′-tert-butylpiperazide) tetrahydrochloride]				1.34	0.032 ± 0.0025
N[C@@H](CSSC[C@H](N)C(=O)N1CCN(C2CC2)CC1)C(=O)N1CCN(C2CC2)CC1 [LH1730, L-Cystine bis(N′-cyclopropylpiperazide) tetrahydrochloride]				0.62	0.0688 ± 0.0041
N[C@@H](CSSC[C@H](N)C(=O)N1CCN(C2CCCC2)CC1)C(=O)N1CCN(C2CCCC2)CC1 [LH1731, L-Cystine bis(N′-cyclopentylpiperazide) tetrahydrochloride]				1.08	0.0395 ± 0.0013
N[C@@H](CSSC[C@H](N)C(=O)N1CCN(c2ccccc2)CC1)C(=O)N1CCN(c2ccccc2)CC1 [LH1732]				0.09	0.5 ± 0.0265
CC1(C)CNCCN1C(=O)[C@@H](N)CSSC[C@H](N)C(=O)N1CCNCC1(C)C [LH1733, L-Cystine bis(2′,2′-dimethylpiperazide) tetrahydrochloride]				0.40	0.108 ± 0.0031
CN(C)CCNC(=O)[C@@H](N)CSSC[C@H](N)C(=O)NCCN(C)C [LH1734, L-Cystine bis (N′,N′-dimethylethyleneamide) tetrahydrochloride]				0.26	0.163 ± 0.0108
N[C@@H](CSSC[C@H](N)C(=O)NCCN1CCCC1)C(=O)NCCN1CCCC1 [LH1735, L-Cystine bis(N′-pyrrolidinoethyleneamide) tetrahydrochloride]				0.37	0.116 ± 0.0061
N[C@@H](CSSC[C@H](N)C(=O)NCCN1CCCCC1)C(=O)NCCN1CCCCC1 [LH1737, L-Cystine bis(N′-piperidinoethyleneamide) tetrahydrochloride]				0.30	0.143 ± 0.0098
N[C@@H](CSSC[C@H](N)C(=O)NCCN1CCOCC1)C(=O)NCCN1CCOCC1 [LH1738, L-Cystine bis(N′-morpholinoethyleneamide) tetrahydrochloride]				0.54	0.0797 ± 0.0077
CN(C)CCCNC(=O)[C@@H](N)CSSC[C@H](N)C(=O)NCCCN(C)C [LH1739, L-Cystine bis (N′,N′-dimethyl-1′,3′-diaminopropaneamide) tetrahydrochloride]				0.37	0.114 ± 0.0094
N[C@@H](CSSC[C@H](N)C(=O)NCCCN1CCCC1)C(=O)NCCCN1CCCC1 [LH1740, L-Cystine bis(1′-pyrrolidine-3′-aminopropaneamide) tetrahydrochloride]				0.26	0.163 ± 0.0125
N[C@@H](CSSC[C@H](N)C(=O)NCCCN1CCOCC1)C(=O)NCCCN1CCOCC1 [LH1741, L-Cystine bis (1′-morpholine-3′-aminopropaneamide) tetrahydrochloride]				0.27	0.16 ± 0.0106
CN(C)C1CCN(C(=O)[C@@H](N)CSSC[C@H](N)C(=O)N2CCC(N(C)C)CC2)CC1 [LH1751, L-Cystine bis(4′-(dimethylamino)-piperidineamide) tetrahydrochloride]				0.84	0.0512 ± 0.0037
N[C@@H](CSSC[C@H](N)C(=O)N1CCC(N2CCCC2)CC1)C(=O)N1CCC(N2CCCC2)CC1 [LH1752, L-Cystine bis(4′-(1″-Pyrrolidinyl)piperidine) tetrahydrochloride]				1.17	0.0365 ± 0.0016
N[C@@H](CSSC[C@H](N)C(=O)N1CCC2(CCCN2)CC1)C(=O)N1CCC2(CCCN2)CC1 [LH1753, L-Cystine bis(1,8-Diazaspiro[4.5]decan-8-yl) tetrahydrochloride]				1.70	0.0251 ± 0.0024
N[C@@H](CSSC[C@H](N)C(=O)N1CCCC12CCNCC2)C(=O)N1CCCC12CCNCC2 [LH1754, L-Cystine bis(1,8-Diazaspiro[4.5]decan-1-yl) tetrahydrochloride]				0.36	0.12 ± 0.013
